Numbers after ± are expanded uncertainties.
Experiment: xn = mol fraction of the nth substance listed
Settings: 101 kPa, Liquid; for speed of sound: Pulse-echo method; for mass density: Vibrating tube method

Q: Which speed of sound (292.38 K, x1 = 1) does the source give for BrCCCCCBr [1,5-dibromopentane] + CCCCCCC here?
A: 1149.5 ± 1.2 m/s

Q: What about the mass density (292.52 K, x1 = 0.1006) of the same molecule?
A: 779.97 ± 0.21 kg/m3

Q: And the mass density (292.52 K, x1 = 0.1994)?
A: 875.92 ± 0.28 kg/m3

Q: And the mass density (292.52 K, x1 = 0.3003)?
A: 975.53 ± 0.39 kg/m3

Q: And the mass density (292.52 K, x1 = 0.4008)?
A: 1075.8 ± 0.51 kg/m3

Q: And the mass density (292.52 K, x1 = 0.5004)?
A: 1176.68 ± 0.64 kg/m3

Q: And the mass density (292.52 K, x1 = 0.5999)?
A: 1278.62 ± 0.62 kg/m3

Q: And the mass density (292.52 K, x1 = 0.6995)?
A: 1381.6 ± 0.65 kg/m3

Q: And the mass density (292.52 K, x1 = 0.8002)?
A: 1487.16 ± 0.7 kg/m3

Q: And the mass density (292.52 K, x1 = 0.899)?
A: 1591.59 ± 0.79 kg/m3

Q: And the mass density (292.52 K, x1 = 1)?
A: 1699.54 ± 0.91 kg/m3

Q: What about the speed of sound (292.56 K, x1 = 0.4) of the same molecule?
A: 1103.5 ± 0.86 m/s

Q: What about the speed of sound (292.59 K, x1 = 0.5001) of the same molecule?
A: 1104.2 ± 0.91 m/s

Q: And the speed of sound (292.65 K, x1 = 0.2)?
A: 1116.5 ± 0.8 m/s

Q: And the speed of sound (292.68 K, x1 = 0.3001)?
A: 1107.2 ± 0.83 m/s

Q: And the speed of sound (292.73 K, x1 = 0.7999)?
A: 1126.3 ± 1.1 m/s

Q: What about the speed of sound (292.75 K, x1 = 0.8998) of the same molecule?
A: 1137.3 ± 1.1 m/s

Q: And the speed of sound (292.76 K, x1 = 0.6)?
A: 1108.4 ± 0.96 m/s

Q: What about the speed of sound (292.8 K, x1 = 0.6997) of the same molecule?
A: 1116.2 ± 1 m/s

Q: And the speed of sound (292.83 K, x1 = 0.1)?
A: 1131.1 ± 0.79 m/s

Q: And the mass density (298.05 K, x1 = 0.1006)?
A: 775.18 ± 0.21 kg/m3

Q: What about the mass density (298.05 K, x1 = 0.1994) of the same molecule?
A: 870.87 ± 0.28 kg/m3

Q: And the mass density (298.05 K, x1 = 0.3003)?
A: 969.84 ± 0.38 kg/m3

Q: And the mass density (298.05 K, x1 = 0.4008)?
A: 1070.23 ± 0.51 kg/m3

Q: What about the mass density (298.05 K, x1 = 0.5004) of the same molecule?
A: 1170.91 ± 0.63 kg/m3

Q: What about the mass density (298.05 K, x1 = 0.5999) of the same molecule?
A: 1272.47 ± 0.62 kg/m3

Q: And the mass density (298.05 K, x1 = 0.6995)?
A: 1375.26 ± 0.64 kg/m3

Q: What about the mass density (298.05 K, x1 = 0.8002) of the same molecule?
A: 1480.47 ± 0.7 kg/m3

Q: And the mass density (298.05 K, x1 = 0.899)?
A: 1584.66 ± 0.79 kg/m3

Q: What about the mass density (298.05 K, x1 = 1) of the same molecule?
A: 1691.87 ± 0.91 kg/m3

Q: And the speed of sound (298.37 K, x1 = 1)?
A: 1133 ± 1.2 m/s

Q: And the speed of sound (298.59 K, x1 = 0.5001)?
A: 1084.5 ± 0.89 m/s

Q: And the speed of sound (298.62 K, x1 = 0.4)?
A: 1082.8 ± 0.85 m/s

Q: What about the speed of sound (298.63 K, x1 = 0.2) of the same molecule?
A: 1093.8 ± 0.78 m/s

Q: And the speed of sound (298.67 K, x1 = 0.3001)?
A: 1085.7 ± 0.81 m/s

Q: And the speed of sound (298.73 K, x1 = 0.8998)?
A: 1120.2 ± 1.1 m/s

Q: And the speed of sound (298.76 K, x1 = 0.7999)?
A: 1108.6 ± 1.1 m/s

Q: And the speed of sound (298.77 K, x1 = 0.6)?
A: 1089.6 ± 0.94 m/s

Q: What about the speed of sound (298.8 K, x1 = 0.6997) of the same molecule?
A: 1098.1 ± 1 m/s

Q: And the speed of sound (298.83 K, x1 = 0.1)?
A: 1106.8 ± 0.76 m/s

Q: And the mass density (303.06 K, x1 = 0.1006)?
A: 770.79 ± 0.21 kg/m3

Q: And the mass density (303.06 K, x1 = 0.1994)?
A: 866 ± 0.28 kg/m3

Q: And the mass density (303.06 K, x1 = 0.3003)?
A: 964.71 ± 0.38 kg/m3

Q: And the mass density (303.06 K, x1 = 0.4008)?
A: 1064.63 ± 0.5 kg/m3

Q: What about the mass density (303.06 K, x1 = 0.5004) of the same molecule?
A: 1165.02 ± 0.63 kg/m3

Q: And the mass density (303.06 K, x1 = 0.5999)?
A: 1266.37 ± 0.62 kg/m3

Q: What about the mass density (303.06 K, x1 = 0.6995) of the same molecule?
A: 1368.9 ± 0.64 kg/m3

Q: What about the mass density (303.06 K, x1 = 0.8002) of the same molecule?
A: 1474.36 ± 0.7 kg/m3

Q: And the mass density (303.06 K, x1 = 0.899)?
A: 1578.04 ± 0.79 kg/m3

Q: What about the mass density (303.06 K, x1 = 1) of the same molecule?
A: 1684.89 ± 0.9 kg/m3

Q: And the speed of sound (303.39 K, x1 = 1)?
A: 1119.3 ± 1.2 m/s

Q: And the speed of sound (303.59 K, x1 = 0.2)?
A: 1075.1 ± 0.77 m/s

Q: And the speed of sound (303.63 K, x1 = 0.3001)?
A: 1068 ± 0.8 m/s

Q: What about the speed of sound (303.64 K, x1 = 0.4) of the same molecule?
A: 1065.8 ± 0.84 m/s

Q: What about the speed of sound (303.64 K, x1 = 0.5001) of the same molecule?
A: 1068.3 ± 0.89 m/s

Q: And the speed of sound (303.67 K, x1 = 0.8998)?
A: 1106.3 ± 1.1 m/s

Q: What about the speed of sound (303.71 K, x1 = 0.7999) of the same molecule?
A: 1094.2 ± 1.1 m/s

Q: What about the speed of sound (303.72 K, x1 = 0.6) of the same molecule?
A: 1074.2 ± 0.94 m/s

Q: And the speed of sound (303.78 K, x1 = 0.6997)?
A: 1083.1 ± 1 m/s

Q: And the speed of sound (303.86 K, x1 = 0.1)?
A: 1086.5 ± 0.76 m/s

Q: What about the mass density (308.08 K, x1 = 0.1006) of the same molecule?
A: 766.31 ± 0.21 kg/m3

Q: And the mass density (308.08 K, x1 = 0.1994)?
A: 861.23 ± 0.28 kg/m3

Q: What about the mass density (308.08 K, x1 = 0.3003) of the same molecule?
A: 959.36 ± 0.38 kg/m3

Q: What about the mass density (308.08 K, x1 = 0.4008) of the same molecule?
A: 1058.93 ± 0.5 kg/m3

Q: And the mass density (308.08 K, x1 = 0.5004)?
A: 1159.11 ± 0.63 kg/m3

Q: And the mass density (308.08 K, x1 = 0.5999)?
A: 1260.5 ± 0.62 kg/m3

Q: What about the mass density (308.08 K, x1 = 0.6995) of the same molecule?
A: 1362.98 ± 0.64 kg/m3

Q: And the mass density (308.08 K, x1 = 0.8002)?
A: 1467.91 ± 0.69 kg/m3

Q: What about the mass density (308.08 K, x1 = 0.899) of the same molecule?
A: 1571.77 ± 0.78 kg/m3

Q: And the mass density (308.08 K, x1 = 1)?
A: 1678.03 ± 0.9 kg/m3

Q: What about the speed of sound (308.38 K, x1 = 1) of the same molecule?
A: 1105.8 ± 1.2 m/s

Q: What about the speed of sound (308.55 K, x1 = 0.2) of the same molecule?
A: 1056.4 ± 0.77 m/s

Q: And the speed of sound (308.58 K, x1 = 0.4)?
A: 1049.1 ± 0.84 m/s

Q: What about the speed of sound (308.58 K, x1 = 0.5001) of the same molecule?
A: 1052.4 ± 0.88 m/s

Q: And the speed of sound (308.67 K, x1 = 0.3001)?
A: 1050 ± 0.8 m/s

Q: What about the speed of sound (308.67 K, x1 = 0.8998) of the same molecule?
A: 1092.3 ± 1.1 m/s

Q: And the speed of sound (308.69 K, x1 = 0.6)?
A: 1058.9 ± 0.94 m/s

Q: What about the speed of sound (308.7 K, x1 = 0.7999) of the same molecule?
A: 1079.8 ± 1.1 m/s

Q: What about the speed of sound (308.82 K, x1 = 0.6997) of the same molecule?
A: 1068.1 ± 1 m/s

Q: And the speed of sound (308.84 K, x1 = 0.1)?
A: 1066.7 ± 0.75 m/s

Q: What about the speed of sound (314.36 K, x1 = 1) of the same molecule?
A: 1089.7 ± 1.2 m/s

Q: And the speed of sound (314.52 K, x1 = 0.5001)?
A: 1033.4 ± 0.87 m/s

Q: And the speed of sound (314.54 K, x1 = 0.3001)?
A: 1029.3 ± 0.78 m/s

Q: And the speed of sound (314.61 K, x1 = 0.2)?
A: 1033.8 ± 0.75 m/s

Q: What about the mass density (314.66 K, x1 = 0.1006) of the same molecule?
A: 760.22 ± 0.21 kg/m3

Q: What about the mass density (314.66 K, x1 = 0.1994) of the same molecule?
A: 854.58 ± 0.28 kg/m3

Q: And the mass density (314.66 K, x1 = 0.3003)?
A: 952.58 ± 0.38 kg/m3

Q: And the mass density (314.66 K, x1 = 0.4008)?
A: 1052 ± 0.5 kg/m3

Q: And the mass density (314.66 K, x1 = 0.5004)?
A: 1151.72 ± 0.63 kg/m3

Q: What about the mass density (314.66 K, x1 = 0.5999) of the same molecule?
A: 1252.55 ± 0.61 kg/m3

Q: And the mass density (314.66 K, x1 = 0.6995)?
A: 1354.65 ± 0.63 kg/m3

Q: And the mass density (314.66 K, x1 = 0.8002)?
A: 1459.75 ± 0.69 kg/m3

Q: What about the mass density (314.66 K, x1 = 0.899) of the same molecule?
A: 1562.81 ± 0.78 kg/m3

Q: What about the mass density (314.66 K, x1 = 1) of the same molecule?
A: 1668.75 ± 0.89 kg/m3

Q: What about the speed of sound (314.67 K, x1 = 0.4) of the same molecule?
A: 1028.8 ± 0.82 m/s

Q: And the speed of sound (314.68 K, x1 = 0.7999)?
A: 1062.8 ± 1.1 m/s

Q: What about the speed of sound (314.7 K, x1 = 0.8998) of the same molecule?
A: 1075.6 ± 1.1 m/s

Q: And the speed of sound (314.75 K, x1 = 0.6)?
A: 1040.2 ± 0.93 m/s

Q: What about the speed of sound (314.82 K, x1 = 0.6997) of the same molecule?
A: 1050.3 ± 0.99 m/s

Q: And the speed of sound (314.83 K, x1 = 0.1)?
A: 1042.8 ± 0.72 m/s

Source: the NIST ThermoML archive (doi:10.1021/je060200b)
